Activity calls are given as the source filed them.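 The calls were made as follows: active = compounds giving half or more protection of infected cells from virus-caused growth loss, again on retest; inactive = the rest.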
System: CEM cells HIV-1 protection, formazan growth assay
Experiment: NCI AIDS Antiviral Assay
Conditions: for IC50: measured here: growth of uninfected CEM cells
Method in brief: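 Human CEM cells, uninfected and HIV-1-infected, received five drug concentrations, and growth was read by soluble formazan assay. Compounds giving at least 50% protection were retested; reproducible 100% protection defined confirmed active.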

## NC(=O)CN1CCN(CCCN2c3ccccc3Sc3ccc(Cl)cc32)CC1
  EC50: > 200 µM
  IC50: 30.9 µM

## O=S(=O)(c1ccccc1)N1CCC1c1ccccc1 (stereo unspecified)
  outcome: inactive

## CCOC(=O)[C@H]1Nc2ccc(Cl)cc2[C@H]2CCC[C@@H]12
  EC50: > 67.6 µM
  IC50: > 67.6 µM

## CC1=NC(c2ccccc2)(C2(c3ccccc3)C(c3ccccc3)=C2c2ccccc2)C(=O)O1 (stereo unspecified)
  EC50: > 6.17 µM
  IC50: > 6.17 µM

## COc1ccc(/C=C/c2ccc3ccccc3[n+]2C)cc1OC
  EC50: 0.0631 µM
  IC50: 52.5 µM

## C=C(C)C1CCC2=CC(CC3(C)OC3C3=CC(C(=O)OC)=C(C1)O3)OC2=O (stereo unspecified)
  EC50: > 47.9 µM
  IC50: > 47.9 µM

## CC1=C(C(=O)Nc2ccccc2)C2(CCCCC2)C(C#N)=C(SCC(=O)Nc2ccc(Br)cc2)N1
  EC50: > 200 µM
  IC50: 12.3 µM

## O=C1C2C3C=CC(O3)C2C(=O)N1/N=C/c1ccc2c(c1)OCO2 (stereo unspecified)
  EC50: > 200 µM
  IC50: > 200 µM

## O=C(OCCN1CCOCC1)C1C[C@@H](O)CN1C(=O)c1ccc2c(c1)OCO2 (stereo partly specified)
  EC50: > 200 µM
  IC50: > 200 µM

## CCCCCCCCCCCCCCCCNc1nc(=O)n(C2CC(N=[N+]=[N-])C(CO)O2)cc1C (stereo unspecified)
  EC50: > 200 µM
  IC50: 9.33 µM

## CCN(CC)CCNc1ccc(Cl)cc1N
  EC50: > 200 µM
  IC50: 39.8 µM

## COc1ccccc1C1C(C#N)C(=O)NC(=O)C1C#N (stereo unspecified)
  EC50: > 200 µM
  IC50: > 200 µM

## COC(=O)[C@@H](NC(=O)N(CCC#N)CCNc1ccccc1)C(C)C
  EC50: > 200 µM
  IC50: > 200 µM

## CCOC(=O)CSC(=O)NCCCl
  EC50: > 1100 µM
  IC50: 537 µM

## Brc1ccc(-c2[nH]c3ccccc3c2N=Nc2ccccc2)cc1
  EC50: > 200 µM
  IC50: 13.5 µM

## C=CCC(CCC(CC=C)C(=O)O)C(=O)O (stereo unspecified)
  EC50: > 1100 µM
  IC50: > 1100 µM

## CC(=O)Oc1ccc[nH]c1=O
  EC50: > 200 µM
  IC50: 58.9 µM

## O=C(O)C1NCCc2c1[nH]c1ccccc21 (stereo unspecified)
  outcome: inactive

## COc1csc([C@H]2CCC3[C@@H]4CC=C5C[C@@H](OC(C)=O)CC[C@]5(C)C4CC[C@@]32C)n1 (stereo partly specified)
  EC50: > 57.5 µM
  IC50: > 57.5 µM

## O=C1[O][Bi]23[O]C(=O)C([O]2)C1[O]3
  EC50: > 36.3 µM
  IC50: > 36.3 µM

## CC1C2C=C(O)C(=O)C(C2=O)C1c1ccccc1 (stereo unspecified)
  EC50: > 741 µM
  IC50: 141 µM

## C=C(CCOC)CCC1CCCCC(=C)[C@H]1OC(C)=O (stereo partly specified)
  EC50: > 200 µM
  IC50: 107 µM

## CN1C(=O)c2cnc3ccccc3c2C1(O)c1ccccc1 (stereo unspecified)
  EC50: > 200 µM
  IC50: > 200 µM

## Cc1c(-c2ccccc2)c(-c2ccc(OCCN(C)C)cc2)n2ccccc12
  EC50: > 200 µM
  IC50: 10 µM

## N=C1OC(CN2CCN(c3ccccc3)CC2)CN1C(=O)Nc1ccccc1 (stereo unspecified)
  EC50: > 200 µM
  IC50: > 200 µM

## CO/N=C(\C)CCC#Cc1ccccc1C(=O)OC
  EC50: > 200 µM
  IC50: > 200 µM

## CC(=O)c1cn(-c2ccc(Cl)cc2)c(=O)c2c(N)n[nH]c12
  EC50: 166 µM
  IC50: > 200 µM

## Nc1nc2ncn(CCO)c2c(=O)[nH]1
  EC50: > 93.3 µM
  IC50: > 93.3 µM

## CCOC(=O)C1C(c2ccc(OC)cc2)C(C(=O)OCC)C(O)(C(F)(F)F)OC1(O)C(F)(F)F (stereo unspecified)
  EC50: > 257 µM
  IC50: 151 µM

## CC/C(Cl)=N\OC(=O)Nc1ccc(C#N)cc1
  EC50: > 200 µM
  IC50: 18.2 µM

## CN(C)c1ccc2c(c1)-c1cc(N(C)C)ccc1C2=C/C=C1\C(=O)c2ccccc2C1=C(C#N)C#N
  EC50: > 15.5 µM
  IC50: > 15.5 µM

## C=CCc1cc(C=C(C#N)C#N)cc(OC)c1O
  EC50: > 200 µM
  IC50: 97.7 µM

## O=C(/C=C/c1ccc(O)cc1)c1ccc2c(c1)OCO2
  EC50: > 200 µM
  IC50: 33.1 µM

## N#CCCN(CCC#N)c1ccc(/C=C2\N=C(c3ccccc3)N(NC(N)=S)C2=O)cc1
  EC50: > 200 µM
  IC50: > 200 µM

## COc1ccc(/C=C2\C(=O)Nc3ccccc32)cc1OC
  EC50: > 1.95 µM
  IC50: > 1.95 µM

## CCOC(=O)c1[nH]n(-c2ccccc2)c(=O)c1/C=N/C(=S)Nc1ccccc1
  EC50: > 200 µM
  IC50: 51.3 µM

## C#C[C@]1(O)CCCC2=CC(=O)CC[C@@]21C
  outcome: inactive

## Cc1c(C)n(COCCO)c2ncnc(N)c12
  EC50: > 200 µM
  IC50: > 200 µM

## [C-]#[O+].[C-]#[O+].[C-]#[O+].[C-]#[O+].[Cr].c1ccc(P(CCP(CCP(c2ccccc2)c2ccccc2)c2ccccc2)CCP(c2ccccc2)c2ccccc2)cc1 (stereo unspecified)
  EC50: > 1.74 µM
  IC50: > 1.74 µM

## C[C@H](COCP(=O)(O)O)n1cnc2c(N)ncnc21
  EC50: > 200 µM
  IC50: > 200 µM

## O=C1O/C(=C(/Cl)c2c3ccccc3cc3ccccc23)c2ccccc21
  EC50: > 200 µM
  IC50: 10.2 µM

## CCN(CC)CCn1c2ccccc2c(=O)c2c(O)ccc(O)c21
  outcome: inactive

## Nc1nc(N)c2c(n1)C(=O)N(Cc1ccccc1)C2
  outcome: inactive
